From ChEMBL document CHEMBL1150552, “Silyl ethers of cycloheptene, novel proton pump inhibitors obtained during the total synthesis of the scopadulcic acids” (Bioorg Med Chem Lett, 1995)

How the values were obtained:
[1] = target: T1, Potassium-transporting ATPase (Sus scrofa) (UniProt P18434+P19156); experiment: Inhibition of procine gastric H+,K+-ATPase at 100 uM in vitro.; type: tissue-based; conditions: Stomach
[2] = target: T1, Potassium-transporting ATPase (Sus scrofa); experiment: Inhibition of procine gastric H+,K+-ATPase at 10 uM in vitro.; type: tissue-based; conditions: Stomach
[3] = target: T1, Potassium-transporting ATPase (Sus scrofa); experiment: Inhibition of procine gastric H+,K+-ATPase at 1 uM in vitro.; type: tissue-based; conditions: Stomach
[4] = Michaelis-Menten constant of the compound.; type: ADME, Sus scrofa; conditions: pig
[5] = Vmax value was measured at 10 uM concentration of silyl ether.; type: ADME, Sus scrofa; conditions: pig
[6] = Vmax value was measured at 5 uM concentration of silyl ether.; type: ADME, Sus scrofa; conditions: pig
[7] = target: Potassium-transporting ATPase (Sus scrofa, UniProt P19156); experiment: Tested for inhibitory activity against gastric H+, K+-ATPase; type: tissue-based, Stomach
Potassium-transporting ATPase, sequence (P18434 whole entry): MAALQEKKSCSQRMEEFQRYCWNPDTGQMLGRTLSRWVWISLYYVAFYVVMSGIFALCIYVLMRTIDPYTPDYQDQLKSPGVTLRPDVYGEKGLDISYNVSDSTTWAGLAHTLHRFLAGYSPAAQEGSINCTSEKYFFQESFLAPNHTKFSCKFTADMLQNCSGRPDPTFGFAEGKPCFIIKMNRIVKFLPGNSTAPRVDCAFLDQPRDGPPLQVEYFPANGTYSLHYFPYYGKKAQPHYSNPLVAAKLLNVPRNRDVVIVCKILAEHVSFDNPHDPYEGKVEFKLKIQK
Potassium-transporting ATPase, sequence (P19156 whole entry): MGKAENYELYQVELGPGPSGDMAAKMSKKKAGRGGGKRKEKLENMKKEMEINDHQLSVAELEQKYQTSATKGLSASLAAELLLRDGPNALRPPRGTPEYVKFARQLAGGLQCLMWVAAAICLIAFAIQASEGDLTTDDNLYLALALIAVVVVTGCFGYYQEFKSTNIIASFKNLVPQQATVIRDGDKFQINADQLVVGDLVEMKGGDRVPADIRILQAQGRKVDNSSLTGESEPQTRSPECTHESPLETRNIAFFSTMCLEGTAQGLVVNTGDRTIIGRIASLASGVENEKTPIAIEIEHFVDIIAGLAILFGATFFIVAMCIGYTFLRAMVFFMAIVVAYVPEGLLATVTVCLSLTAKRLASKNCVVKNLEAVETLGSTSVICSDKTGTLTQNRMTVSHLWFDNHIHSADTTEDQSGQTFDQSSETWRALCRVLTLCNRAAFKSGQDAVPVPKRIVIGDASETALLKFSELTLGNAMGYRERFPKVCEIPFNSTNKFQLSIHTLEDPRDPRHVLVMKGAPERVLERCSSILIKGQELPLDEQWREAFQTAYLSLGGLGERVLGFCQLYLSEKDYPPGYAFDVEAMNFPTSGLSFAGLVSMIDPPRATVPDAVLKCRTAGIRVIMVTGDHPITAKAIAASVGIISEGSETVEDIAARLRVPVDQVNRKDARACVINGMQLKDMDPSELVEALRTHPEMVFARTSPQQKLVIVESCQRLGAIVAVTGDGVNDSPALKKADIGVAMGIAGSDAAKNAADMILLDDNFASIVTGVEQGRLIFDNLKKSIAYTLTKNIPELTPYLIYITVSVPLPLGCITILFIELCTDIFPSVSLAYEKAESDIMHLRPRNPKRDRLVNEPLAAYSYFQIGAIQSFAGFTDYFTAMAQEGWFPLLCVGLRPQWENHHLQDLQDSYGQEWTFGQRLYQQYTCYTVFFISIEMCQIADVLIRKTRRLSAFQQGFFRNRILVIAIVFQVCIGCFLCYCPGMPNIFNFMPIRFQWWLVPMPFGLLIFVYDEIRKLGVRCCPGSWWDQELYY

[8] = Vmax value was measured at 0 uM concentration of silyl ether.; type: ADME, Sus scrofa; conditions: pig

With C[C@]12CC[C@]3(C1)C(=CC(=O)c1ccccc13)C[C@@H]2O the inhibition [1] was 17%, the inhibition [2] was 17% and the inhibition [3] was 8%.

Work on CO[C@H]1C[C@@H]2C[C@H](O)c3c(C(=O)O)cccc3[C@]23CC[C@@]1(C)C3 yielded an inhibition [1] of 21%, an inhibition [2] of 0% and an inhibition [3] of -6%.

Work on C[C@]12CC[C@]3(C1)[C@H](CC2=O)C[C@@H](OC(=O)c1ccccc1)[C@H]1[C@](C)(C(=O)O)CCC[C@@]13C yielded an inhibition [1] of 62%, an inhibition [2] of 21% and an inhibition [3] of 7%.

In the case of COCO[C@H]1C[C@@H]2C[C@@H](O[Si](C)(C)C)C3[C@](C#N)(COCc4ccccc4)CCC[C@]3(C)[C@]23CC[C@@]1(C)C3 (some centres not stated), the inhibition [1] is reported as 52%, the inhibition [2] is reported as 44% and the inhibition [3] is reported as 25%.

Work on C[C@]12C=CC3=CC(=O)c4ccccc4[C@@]3(CC1)C2 yielded an inhibition [1] of 61%, an inhibition [2] of 9% and an inhibition [3] of 16%.

In the case of C=C1CCC(C)=CC[C@@H]1C[C@H](/C=C(\I)CCCC1OCCO1)O[Si](C)(C)C(C)(C)C, the inhibition [1] is reported as 93%, the inhibition [2] is reported as 63% and the inhibition [3] is reported as 14%.

Work on COC(=O)[C@]1(C)CCC[C@@]2(C)[C@H]1[C@H](OC(=O)c1ccccc1)C[C@H]1CC(=O)[C@@]3(C)CC[C@]12C3 yielded an inhibition [1] of 81%, an inhibition [2] of 74% and an inhibition [3] of 36%.

For CC1=CCC(CCO)C(=O)CC1 (configuration not stated), the inhibition [1] was 34%, the inhibition [2] was 9% and the inhibition [3] was 11%.

For CO[C@H]1C[C@@H]2C[C@@H]3OC(=O)c4cccc(c43)[C@]23CC[C@@]1(C)C3, the inhibition [1] was 55%, the inhibition [2] was 16% and the inhibition [3] was 1%.

With C=C[C@@]1(C)C[C@@H]1C(=O)CCC(O)c1ccccc1I (some centres not stated) the inhibition [1] was 63%, the inhibition [2] was 35% and the inhibition [3] was 8%.

C=C1CCC(C)=CC[C@@H]1C[C@@H](O)C#CCCCC1OCCO1 gave an inhibition [1] of 20%, an inhibition [2] of 13% and an inhibition [3] of 8%.

CC1=CCC(CC(O)c2ccccc2I)C(=O)CC1 (configuration not stated) gave an inhibition [1] of 72%, an inhibition [2] of 19% and an inhibition [3] of 10%.

C[C@]12CC[C@@]3(C1)c1ccccc1C(=O)C[C@H]3C[C@@H]2O showed an inhibition [1] of 0%, an inhibition [2] of 19% and an inhibition [3] of 18%.

Compound C=C1CCC(C)=CCC1CC(O[Si](C)(C)C(C)(C)C)c1ccccc1I (configuration not stated) has an inhibition [1] of 98%, an inhibition [2] of 63% and an inhibition [3] of 15%.

With COCO[C@H]1C[C@@H]2C[C@@H](O[Si](C)(C)C)C3[C@@H](C#N)CCC[C@]3(C)[C@]23CC[C@@]1(C)C3 (some centres not stated) the inhibition [1] was 67%, the inhibition [2] was 32% and the inhibition [3] was 4%.

In the case of C=C[C@@]1(C)C[C@@H]1C(=O)CCC(O[Si](C)(C)C(C)(C)C)c1ccccc1I (some centres not stated), the inhibition [1] is reported as 80%, the inhibition [2] is reported as 50% and the inhibition [3] is reported as 29%.

CO[C@H]1C[C@@H]2CC(=O)c3ccccc3[C@]23CC[C@@]1(C)C3 gave an inhibition [1] of 42% and an inhibition [2] of 17%.

With CC1=CCC(CC(O[Si](C)(C)C(C)(C)C)c2ccccc2I)C(=O)CC1 (configuration not stated) the Km [4] was 460 µM, the Vmax [5] was 31 µM/h/mg and the Vmax [6] was 63 µM/h/mg. For the same compound, the IC50 [7] was 8.2 µM, the inhibition [1] was 95% and the inhibition [2] was 74%. The inhibition [3] was 30% and the Vmax [8] was 125 µM/h/mg.

Work on C[C@]12CCC3=CC(=O)c4ccccc4[C@@]3(CC1)C2 yielded an inhibition [1] of 52%, an inhibition [2] of 9% and an inhibition [3] of -2%.

With CO[C@H]1C[C@@H]2CC(=O)C3=C(CCC[C@@]3(C)CO)[C@]23CC[C@@]1(C)C3 the inhibition [1] was 8%, the inhibition [2] was 14% and the inhibition [3] was 9%.

COCO[C@H]1C[C@@H]2CC(=O)C3[C@@H](C#N)CCC[C@]3(C)[C@]23CC[C@@]1(C)C3 (some centres not stated) showed an inhibition [1] of 17%, an inhibition [2] of 7% and an inhibition [3] of 5%.
